Experimental data taken from patent publication US20250347685A1, “DONOR-ACCEPTOR CONJUGATED OLIGOELECTROLYTES FOR CELL LABELLING AND METHODS THEREOF” (National University of Singapore, priority 2021, published 2025).

Tests used:
[1] = tested on: HCT 116 Exosomes; test: Flow cytometry of exosomes labelled with COE compound
Protocol: Exosome were prepared via the following protocol: Exosomes were purchased from ATCC, aliquoted and stored at −80° C. A single aliquot was removed from −80° C. and placed on ice. Exosomes were diluted 10 times in cell culture grade PBS. 8 μL of the exosome suspension was mixed with between […] of COE compound. This was placed on ice for 10-minutes before being diluted 100 times in PBS to an approximate final concentration of 6×10^6 particles/mL of exosomes and 25-1 nM of COE.
Samples were briefly vortexed and used for flow cytometry. Flow cytometry measurements were obtained by measuring the side scattering on the violet laser (x-axis) and by measuring fluorescent intensity (y-axis: λexcitation=405, 488 nm λemission=525, 690 nm). […] Using the COE compound, the exosomes can be stained with a low concentration of dye and can be used directly without additional purification.

[2] = tested on: SW480 exosomes; test: NanoAnalyzer (NanoFCM) flow analysis of dye-labelled SW480 exosomes and dye only controls; settings: for % Positive for dye: after purifying excess dyes using ultracentrifugation; for Number of particle counts, positive / Number of particle counts, total: dye only controls
Protocol: In another example, exosomes isolated from SW480 colon cancer cell lines and purified using size exclusion chromatography were kindly provided by NanoFCM (UK). The labelling and flow cytometry analysis were also carried out by the trained technicians at NanoFCM (UK). […] The mixture was left to incubate at room temperature for 30 min and then diluted 100 times using PBS before analysis on the NanoAnalyzer (NanoFCM). Detection of the exosomes was carried out on the small threshold settings (68-155 S16M-Exo) and analysis of the labelled population was done on the PC5 channel (Ex488/Em670). Dye control samples were prepared by replacing the 9 μL exosome solution with PBS, followed by the same steps as the exosome samples for flow analysis. The results were validated through at least two replicates. In a separate experiment, the labelled exosomes were also purified of excess dyes using standard ultracentrifugation methods before analyzing as per described above.

[3] = COE intercalation into lipid bilayer of SUVs, emission measured with a fluorimeter; assay type: physicochemical; settings: in PBS
Protocol: Liposomes were prepared using the protocol as follows. Phospholipids (ex. POPC, POPE, and POPG) in chloroform solution were mixed to a proper molar ratio and dried under a gentle stream of nitrogen. The dried lipids were further desiccated in a vacuum overnight to obtain a thin lipid film. For preparing small unilamellar vesicles (SUVs), rehydration of the dried film was carried out by adding phosphate buffered saline (PBS) to a concentration of 5 mg mL-1, followed by incubation at 35° C. for 2 h under constant stirring at ˜300 rpm. Then, the vesicles were extruded using a 100 nm membrane at 45° C. 21 times to obtain SUV samples. Vesicles were kept at 4° C. until further use.
When mixing the SUVs with COE-BT, the COE will intercalate into the lipid bilayers. This is spontaneously driven by the electrostatic and hydrophobic interactions between the COEs and the lipids. As a result, a significant emission enhancement is observed. For example, relative to the COE-BT solution, the emission intensity of the SUV and COE-BT complexes increases more than 400 times between 600 to 630 nm. […] By adjusting different chemical structures, the COEs can achieve different emission wavelengths, ranging from “green”, “red”, to even “infrared” (FIGS. 14 & 15). The various color choices confer COE dyes with high compatibility in using multiple dyes concurrently.

[4] = Dynamic light scattering of liposome size and uniformity after COE addition; assay type: physicochemical; settings: 10 μM COE into 1 mg/mL SUV samples
Protocol: To identify whether COE treatment will alter the morphology of liposomes (e.g., inducing the fusion or fission of liposomes), dynamic light scattering (DLS) measurements with a lipid SUV model were employed (FIG. 16). The SUVs were obtained after extrusion using a 100 nm membrane. […] After addition of 10 μM COE-BBT into the 1 mg/mL SUV samples, the Z-average size is 104.8±32.65 nm with a PDI of 0.054.

[5] = tested on: RBCs; test: Flow cytometry of COE-stained and unstained red blood cells mixed at various ratios; assay type: cell-based, Bovine
Protocol: RBCs (isolated from Bovine whole blood, Innovative Research, Inc.) were diluted 10 times from stock into PBS and centrifuged at 3,000 RPM for 5 minutes. The supernatant was removed, and the pellet was resuspended in PBS. This was repeated for a total of 3 times. The final pellet was resuspended into PBS to be 1% by volume. […] COE compound was added to the RBC suspension and was allowed to incubate for 20 min at RT. The RBC COE compound mixture was then centrifuged again at 3,000 RPM for 5 min. The supernatant was removed and the pellet resuspended in fresh PBS. COE compound stained and unstained RBCs were respectively mixed at various ratios by volume of 0:5, 1:4, 2:3, 3:2, 4:1 and 5:0. The resulting RBC mixtures were diluted 100 times in PBS for flow cytometry experiments.

[6] = tested on: Red blood cells; test: Flow cytometry of red blood cells from donor's blood labelled with dye; assay type: cell-based
Protocol: Red blood cells were obtained from donor's blood after removing the plasma via centrifugation. The RBC were either used fresh or stored for 22 days. […] The cells were incubated with the dyes for 10 min before centrifuging down at 700 g for 3 min to remove free dyes. The labelled cell pellet was then resuspended in 1 mL of PBS. The cells were then diluted 10× further in PBS before imaging on the 8-well ibidi chamber slides, and analysing for size and fluorescence on the flow cytometry (Cytoflex).

| SMILES | % of events in Area of Interest ([1]; Exosome + COE) [%] | All Events/μL ([1]; Exosome + COE) [Events/μL] | Area of Interest Events/μL ([1]; Exosome + COE) [Events/μL] | % of events in Area of Interest ([1]; dye only, no exosomes) [%] | All Events/μL ([1]; dye only, no exosomes) [Events/μL] | Area of Interest Events/μL ([1]; dye only, no exosomes) [Events/μL] | % Positive for dye ([2]; 10 uM) [%] | % Positive for dye ([2]; 20 uM) [%] | Number of particle counts, positive ([2]; 10 uM) | Number of particle counts, total ([2]; 10 uM) | further results |
| --- | --- | --- | --- | --- | --- | --- | --- | --- | --- | --- | --- |
| C[N+](C)(C)CCCCCCOc1cc(/C=C/c2ccc(-c3ccc(-c4ccc(-c5ccc(-c6ccc(/C=C/c7cc(OCCCCCC[N+](C)(C)C)c(OCCCCCC[N+](C)(C)C)c(OCCCCCC[N+](C)(C)C)c7)cc6)cc5)cc4)cc3)cc2)cc(OCCCCCC[N+](C)(C)C)c1OCCCCCC[N+](C)(C)C.[I-].[I-].[I-].[I-].[I-].[I-] [COE-Quin] | 63.71 | 6088.97 | 3878.99 | 7.98 | 1438.47 | 114.78 |  |  |  |  |  |
| C[N+](C)(C)CCCCCCOc1cc(/C=C/c2ccc(-c3ccc(-c4ccc(-c5ccc(-c6ccc(/C=C/c7cc(OCCCCCC[N+](C)(C)C)c(OCCCCCC[N+](C)(C)C)c(OCCCCCC[N+](C)(C)C)c7)cc6)s5)c5nonc45)s3)cc2)cc(OCCCCCC[N+](C)(C)C)c1OCCCCCC[N+](C)(C)C.[Br-].[Br-].[Br-].[Br-].[Br-].[Br-] [COE-BO] |  |  |  |  |  |  | 43.10 | 47.60 | 2 | 181 | Percentage + (positive events) ([2]; labelled SW480 exosomes, 10 uM, N = 2): 66.55% |
| CCCCCCCCCCCCCCCCCCCCCC[N+]1=C(/C=C/C=C2/N(CCCCCCCCCCCCCC)c3ccccc3C2(C)C)C(C)(C)c2ccccc21.[I-] [PKH-26, reference compound] |  |  |  |  |  |  | 22.00 | 19.90 | 636 | 637 |  |
| C[N+](C)(C)CCCCCCOc1cc(/C=C/c2ccc(-c3ccc(-c4c5c(c(-c6ccc(-c7ccc(/C=C/c8cc(OCCCCCC[N+](C)(C)C)c(OCCCCCC[N+](C)(C)C)c(OCCCCCC[N+](C)(C)C)c8)cc7)s6)c6nsnc46)N=S=N5)s3)cc2)cc(OCCCCCC[N+](C)(C)C)c1OCCCCCC[N+](C)(C)C [COE-BBT] |  |  |  |  |  |  |  |  |  |  | emission enhancement after mixing with SUVs (in words) [3]: same phenomenon is seen; PDI of SUVs after COE addition [4]: 0.054; Z-average size of SUVs after COE addition [4]: 104.8±32.65 nm |
| C[N+](C)(C)CCCCCCOc1cc(/C=C/c2ccc(/C=C/c3ccc(/C=C/c4ccc(/C=C/c5ccc(/C=C/c6cc(OCCCCCC[N+](C)(C)C)c(OCCCCCC[N+](C)(C)C)c(OCCCCCC[N+](C)(C)C)c6)cc5)cc4)cc3)cc2)cc(OCCCCCC[N+](C)(C)C)c1OCCCCCC[N+](C)(C)C.[I-].[I-].[I-].[I-].[I-].[I-] [COE-S6] | 63.67 | 5113.31 | 3255.41 | 1.41 | 2909.37 | 41.08 |  |  |  |  | RBC + COE-S6 Events/μL ([5]; stained to unstained RBCs 1:4): 207.2 Events/μL; RBC Events/μL ([5]; stained to unstained RBCs 1:4): 891.58 Events/μL; total events/μL ([5]; stained to unstained RBCs 1:4): 1098 events/μL; RBC + COE-S6 Events/μL ([5]; stained to unstained RBCs 2:3): 312.27 Events/μL; RBC Events/μL ([5]; stained to unstained RBCs 2:3): 812.03 Events/μL; total events/μL ([5]; stained to unstained RBCs 2:3): 1124 events/μL; RBC + COE-S6 Events/μL ([5]; stained to unstained RBCs 3:2): 767.09 Events/μL; RBC Events/μL ([5]; stained to unstained RBCs 3:2): 470.71 Events/μL; total events/μL ([5]; stained to unstained RBCs 3:2): 1237 events/μL; RBC + COE-S6 Events/μL ([5]; stained to unstained RBCs 4:1): 1039.71 Events/μL; RBC Events/μL ([5]; stained to unstained RBCs 4:1): 225.64 Events/μL; total events/μL ([5]; stained to unstained RBCs 4:1): 1265 events/μL; RBC + COE-S6 Events/μL ([5]; stained to unstained RBCs 5:0): 450.48 Events/μL; RBC Events/μL ([5]; stained to unstained RBCs 5:0): 2.98 Events/μL; total events/μL ([5]; stained to unstained RBCs 5:0): 453 events/μL; artifact to the morphology of the RBC (FSC/SSC dot plots) ([6]; 1 μM COE-S6): does not introduce an artifact; change in fluorescence of RBCs labelled with increasing dye concentrations ([6]; histograms, FIG. 35 d-e): increase in fluorescence; homogeneity of RBC labelling (coefficient of variance of histogram data) ([6]; versus Cell Mask Deep Red): more homogeneous and uniform |
| C[N+](C)(C)CCCCCCOc1cc(/C=C/c2ccc(-c3ccc(-c4ccc(-c5ccc(-c6ccc(/C=C/c7cc(OCCCCCC[N+](C)(C)C)c(OCCCCCC[N+](C)(C)C)c(OCCCCCC[N+](C)(C)C)c7)cc6)s5)cc4)s3)cc2)cc(OCCCCCC[N+](C)(C)C)c1OCCCCCC[N+](C)(C)C.[I-].[I-].[I-].[I-].[I-].[I-] [COE-Ben] | 54.69 | 6071.19 | 3314.72 | 6.72 | 1480.33 | 99.48 |  |  |  |  |  |
